Read-outs that look alike come from different tables or passages of the source.
Columns and labels:
[1] = cited from earlier work; for major side effect of use in incontinence (blood pressure): dose-dependent; for major side effect of use in incontinence (blood pressure) / CNS side effects in some patients: Andersson and Sjogren, 1982; for CNS side effects in some patients: stimulant actions in the CNS, Wein, 1987
[2] = prodrug; cited from earlier work
[3] = Andersson and Sjogren, 1982; cited from earlier work
[4] = target: T1, human α1B adrenoceptor (Homo sapiens, UniProt P35368); assay: Radioligand binding ([3H]prazosin) at cloned human α1B
T1 construct: The entire coding region of the α1B receptor (1563 bp); expressed in transfected cells
T1 sequence (P35368 1-520): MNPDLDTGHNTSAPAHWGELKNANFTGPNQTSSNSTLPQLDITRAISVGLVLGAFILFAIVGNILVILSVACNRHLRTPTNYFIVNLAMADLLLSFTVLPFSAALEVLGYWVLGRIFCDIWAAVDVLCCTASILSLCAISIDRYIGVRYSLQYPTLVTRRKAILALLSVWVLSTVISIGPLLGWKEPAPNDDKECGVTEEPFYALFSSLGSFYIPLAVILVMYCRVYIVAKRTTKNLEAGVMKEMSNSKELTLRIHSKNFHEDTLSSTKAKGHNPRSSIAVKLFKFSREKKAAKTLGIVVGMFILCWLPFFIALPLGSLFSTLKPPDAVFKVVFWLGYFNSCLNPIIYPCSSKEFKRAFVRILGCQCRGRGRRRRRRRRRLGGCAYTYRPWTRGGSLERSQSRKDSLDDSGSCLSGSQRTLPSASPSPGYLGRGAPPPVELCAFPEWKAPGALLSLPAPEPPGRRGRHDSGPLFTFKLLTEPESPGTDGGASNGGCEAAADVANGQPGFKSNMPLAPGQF
Method: (§1) These cell lines were prepared by transfecting the cloned cDNA or cloned genomic DNA or constructs containing both genomic DNA and cDNA encoding the human α-adrenoceptors as follows:
The construct involved ligating the full-length containing EcoRI brainstem cDNA fragment from λ ZapII into the expression vector. Stable cell lines were obtained as described above.
(§2) Transfected cells from culture flasks were scraped into 5 ml of 5 mM Tris-HCl, 5 mM EDTA, pH 7.5, and lysed by sonication. The cell lysates were centrifuged at 1000 rpm. for 5 min at 4° C., and the supernatant was centrifuged at 30,000 ×g for 20 min at 4° C. The pellet was suspended in 50 mM Tris-HCl , 1 mM MgCl2, and 0.1% ascorbic acid at pH 7.5. […] The reaction was stopped by filtration through GF/B filters using a cell harvester.

[5] = target: T2, rabbit urethra, male (α1-adrenoceptor) (Oryctolagus cuniculus, UniProt O02824); assay: Contractile study in isolated male rabbit urethra; conditions: versus phenylephrine-induced contraction
T2 sequence (O02824 1-466): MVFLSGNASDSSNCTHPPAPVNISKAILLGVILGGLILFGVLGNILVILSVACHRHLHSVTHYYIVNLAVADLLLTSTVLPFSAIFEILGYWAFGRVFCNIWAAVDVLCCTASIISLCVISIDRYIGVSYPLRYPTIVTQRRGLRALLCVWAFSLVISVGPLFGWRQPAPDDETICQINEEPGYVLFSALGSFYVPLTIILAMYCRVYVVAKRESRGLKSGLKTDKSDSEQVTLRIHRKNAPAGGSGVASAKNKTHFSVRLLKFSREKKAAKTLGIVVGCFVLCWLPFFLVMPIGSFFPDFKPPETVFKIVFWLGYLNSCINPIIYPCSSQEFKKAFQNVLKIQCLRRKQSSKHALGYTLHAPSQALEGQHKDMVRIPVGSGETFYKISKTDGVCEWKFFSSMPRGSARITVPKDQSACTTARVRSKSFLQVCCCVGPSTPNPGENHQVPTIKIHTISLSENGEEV
Excerpt: (§3) In addition, similar studies were done using bladder neck tissue from female dogs. In order to identify the specific receptor subtype in each tissue, the pharmacological profile was compared to the profiles for these same drugs at the cloned human α1A, α1B, or α1C subtypes.
(§4) Tissue samples from the proximal urethra of male humans and male and female rabbits, as well as tissue samples from both the proximal urethra and bladder neck of male and female dogs were cut into transverse strips (3×10 mm) and suspended under 0.5 g tension in Krebs' physiological buffer at 37° C. To determine agonist potency (pEC50 )and antagonist affinity constants (pKB), concentration-effect curves to the non-selective agonist phenylepherine were constructed in the absence and in the presence of increasing concentrations of the antagonist. Up to four sequential curves were constructed in each tissue. Antagonists were allowed to equilibrate for 1h before each concentration-effect curve, and the drugs were completely washed out in between successive curves. In each experiment, one tissue served as a "time control", in which no antagonist was added so that changes in tissue sensitivity could be assessed as a function of time. […] In instances in which a single concentration of antagonist was used, pKB values were determined by the equation: […], where CR is defined as the ratio of the agonist EC50 in the presence of the antagonist to that in the absence of the antagonist.

[6] = target: T3, dog BN, female (α1-adrenoceptor) (Canis lupus, UniProt A0A8I3NK63); assay: Contractile study in isolated female dog bladder neck; conditions: versus phenylephrine-induced contraction
T3 sequence (A0A8I3NK63 1-466): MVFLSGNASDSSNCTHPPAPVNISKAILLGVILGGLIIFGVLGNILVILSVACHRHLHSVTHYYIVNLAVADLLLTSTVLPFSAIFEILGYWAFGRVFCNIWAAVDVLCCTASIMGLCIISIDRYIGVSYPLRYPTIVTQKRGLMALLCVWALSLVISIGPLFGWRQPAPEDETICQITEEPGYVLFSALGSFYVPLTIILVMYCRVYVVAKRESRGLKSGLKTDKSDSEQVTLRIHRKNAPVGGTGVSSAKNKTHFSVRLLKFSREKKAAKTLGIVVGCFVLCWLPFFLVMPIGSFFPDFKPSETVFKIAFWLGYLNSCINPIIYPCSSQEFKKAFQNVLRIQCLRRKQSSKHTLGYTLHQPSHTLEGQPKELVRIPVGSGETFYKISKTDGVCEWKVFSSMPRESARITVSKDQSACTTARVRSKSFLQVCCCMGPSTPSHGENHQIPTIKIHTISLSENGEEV
Excerpt: as §3, §4

[7] = target: T4, dog BN, male (α1-adrenoceptor) (Canis lupus, UniProt A0A8I3NK63); assay: Contractile study in isolated male dog bladder neck; conditions: versus phenylephrine-induced contraction
T4 sequence (A0A8I3NK63 1-466): T3 sequence (A0A8I3NK63 1-466)
Excerpt: as §3, §4

[8] = target: T5, rabbit urethra, female (α1-adrenoceptor) (Oryctolagus cuniculus, UniProt O02824); assay: Contractile study in isolated female rabbit urethra; conditions: versus phenylephrine-induced contraction; read-out: pKB Rabbit Urethra Female (converted)
T5 construct: proximal urethra of male humans and male and female rabbits; from tissue; host or cells: rabbit proximal urethra strips, male or female
T5 sequence (O02824 1-466): T2 sequence (O02824 1-466)
Excerpt: as §3, §4

[9] = target: T6, human α1A adrenoceptor (Homo sapiens, UniProt P25100); assay: biochemical; assay type: binding
T6 sequence (P25100 1-572): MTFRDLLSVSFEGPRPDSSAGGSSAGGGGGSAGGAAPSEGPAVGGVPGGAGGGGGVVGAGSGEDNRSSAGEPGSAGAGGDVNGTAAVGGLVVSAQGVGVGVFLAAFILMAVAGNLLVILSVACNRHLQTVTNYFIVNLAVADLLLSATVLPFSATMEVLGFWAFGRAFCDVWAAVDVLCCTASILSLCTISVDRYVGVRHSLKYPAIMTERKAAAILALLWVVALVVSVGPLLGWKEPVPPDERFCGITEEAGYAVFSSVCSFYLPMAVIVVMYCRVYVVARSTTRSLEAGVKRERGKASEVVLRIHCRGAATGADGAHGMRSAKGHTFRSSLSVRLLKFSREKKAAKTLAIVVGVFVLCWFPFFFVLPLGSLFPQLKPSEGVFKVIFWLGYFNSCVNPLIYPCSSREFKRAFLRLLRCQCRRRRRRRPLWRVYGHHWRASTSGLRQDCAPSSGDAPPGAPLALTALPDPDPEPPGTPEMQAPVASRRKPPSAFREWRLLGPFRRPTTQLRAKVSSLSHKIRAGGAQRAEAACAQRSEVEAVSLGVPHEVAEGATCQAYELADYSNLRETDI
Method: as §1
The cells were grown, in a controlled environment (37° C., 5% CO2), as monolayers in Dulbecco's modified Eagle's Medium (GIBCO, Grand Island, N.Y.) containing 25 mM glucose and supplemented with 10% bovine calf serum, 100 units/ml penicillin g, and 100 μg/ml streptomycin sulfate.
as §2

[10] = target: T7, human urethra (α1-adrenoceptor) (Homo sapiens, UniProt P35348); assay: Contractile study in isolated human male urethra
T7 construct: Tissue samples from the proximal urethra of male humans; from tissue; host or cells: human male proximal urethra strips
T7 sequence (P35348 1-466): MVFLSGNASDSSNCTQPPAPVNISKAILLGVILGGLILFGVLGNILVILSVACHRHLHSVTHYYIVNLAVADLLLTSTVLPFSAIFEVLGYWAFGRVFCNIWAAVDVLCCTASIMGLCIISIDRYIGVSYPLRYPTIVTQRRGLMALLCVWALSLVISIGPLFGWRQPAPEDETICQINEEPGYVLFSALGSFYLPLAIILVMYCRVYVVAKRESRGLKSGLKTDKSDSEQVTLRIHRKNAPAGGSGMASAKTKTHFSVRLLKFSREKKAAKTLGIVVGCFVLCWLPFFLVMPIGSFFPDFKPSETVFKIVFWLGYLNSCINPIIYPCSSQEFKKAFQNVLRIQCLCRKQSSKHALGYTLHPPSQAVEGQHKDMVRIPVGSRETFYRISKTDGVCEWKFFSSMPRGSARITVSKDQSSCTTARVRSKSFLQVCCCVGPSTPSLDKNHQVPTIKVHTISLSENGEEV
Excerpt: as §3, §4

[11] = target: T8, human α1C adrenoceptor (Homo sapiens, UniProt P35348); assay: biochemical; assay type: binding
T8 sequence (P35348 1-466): T7 sequence (P35348 1-466)
Method: as §1
The construct involved ligating three partial overlapping fragments: a 5' 0.6 kb HincII genomic clone, a central 1.8 EcoRI hippocampal cDNA clone, and a 3' 0.6 Kb PstI genomic clone. The hippocampal cDNA fragment overlaps with the 5' and 3' genomic clones so that the HincII and PstI sites at the 5' and 3' ends of the cDNA clone, respectively, were utilized for ligation. This full-length clone was cloned into the KpnI site of the expression vector, using the 5' and 3' KpnI sites of the fragment, derived from vector (i.e., pBluescript) and 3'-untranslated sequences, respectively. Stable cell lines were obtained as described above.
as §2

In the case of `CN[C@@H](C)[C@H](O)c1ccccc1` [ephedrine], the “major side effect of use in incontinence (blood pressure)” value (from here on “major side effect of use”) [1] is given as “increase in blood pressure” and the “CNS side effects in some patients” value [1] is given as “insomnia, anxiety and dizziness”.
In the case of `COc1ccc(OC)c(C(O)CNC(=O)CN)c1` (stereo not drawn) [midodrine], the “in vivo conversion to active phenylethylamine” value [2] is given as “converted in vivo to the active phenylethylamine ST-1059” and the “clinical efficacy in urinary incontinence” value [3] is given as “has not been demonstrated conclusively”.
With `COc1ccccc1N1CCN(CCN2C(=O)CC3(CCCC3)CC2=O)CC1` [BMY 7378] the Ki ([4]; Table 2, antagonists, versus 3H-prazosin, read-out: pKI (antagonist affinity, 3H-prazosin binding) hα1B (converted)) was 0.1 µM, the “pKB Rabbit Urethra Male” value [5] was 6.5 and the “pKB Dog BN Female” value [6] was 6.8. For the same molecule, the “pKB Dog BN Male” value [7] was 7.1 and the Kb [8] was 0.794 µM.
`COC(=O)C1=C(C)NC(C)=C(C(=O)OCCCN2CCC(c3ccccc3)(c3ccccc3)CC2)C1c1ccc([N+](=O)[O-])cc1.Cl` (racemic) [Compound 1, (±)-2,6-Dimethyl-4-(4-nitrophenyl)-1,4-dihydro-pyridine-3,5-dicarboxylicacid [3-(4,4-diphenylpiperidin-1-yl)propyl]ester methyl ester hydrochloride] gave a Ki [4] of 0.0794 µM, a Ki [9] of 0.316 µM and a Kb [10] of 0.00794 µM. For the same molecule, the Ki [11] was 0.00316 µM and the “pKB Dog BN Male” value [7] was 6.2.
In the case of `CNC[C@H](O)c1cccc(O)c1` [phenylephrine], the “major side effect of use” value [1] is given as “increase in blood pressure”.
In the case of `CC(N)C(O)c1ccccc1` (stereo not drawn) [phenylpropanolamine], the “major side effect of use” value [1] is listed as “increase in blood pressure” and the “CNS side effects in some patients” value [1] is listed as “insomnia, anxiety and dizziness”.
In the case of `Clc1cccc(Cl)c1N=C1NCCN1` [clonidine], the “undesirable side effects at therapeutic doses” value ([1]; in addition to antihypertensive effect) is listed as “dry mouth, sedation and orthostatic hypotension”.
